Patent US20060165827A1, “Anti diarrhoea compositions” (Loders Croklaan USA LLC, priority 2002, published 2006)

Key:
[1] = system: growing piglets; test: Growth, food intake and food conversion of weaned piglets on supplemented feed; format: in vivo, pig
Description: (§1) Evaluate the effect of supplementation with shea sterols on growth and post-weaning diarrhoea of growing piglets.
(§2) One day before the start of the experiment the pigs are weighed. The piglets are distributed over the different treatment groups with the aim to establish group equality in weight, sex. Piglets smaller than 5 kg or piglets with physical disturbances are excluded from the study.
(§3) At a mean age of 27 days the pigs are weaned and randomly assigned to the 3 experimental groups and are then treated for 35 days. Pigs are fed ad libitum. The first 14 days post weaning the pigs are fed a prestarter diet. Subsequently, the piglets are changed in a period of 3 days to a starter diet. Throughout the 35 day study period the food is supplemented with either:
(§4) 1. without antimicrobial growth enhancers
(§5) 2. with antimicrobial growth enhancers (AMGB: 40 ppm avilamycine)
(§6) 3. with shea oleine (0.4%)
(§7) The shea oleine contained 8 wt % sterols and pentacyclic terpenes. The shea oleine was obtained by fractionation of the extract from shea nuts into a stearine and oleine fraction, followed by partial bleaching and deodorising.
Piglets were weighed at the start of the experiment, at 14 days and at day 34.

[2] = system: post-weaning diarrhoea of growing piglets; test: Incidence of post-weaning diarrhoea in weaned piglets on supplemented feed; format: in vivo, pig
Description: as §1, §2, §3, §4, §5, §6, §7

[3] = from weaning till 14 days post weaning
[4] = from weaning till 14 days post weaning, p < 0.001

Question: Which results are given for avilamycine [AMGB]?
Answer: EW-conversion ([1]; from day 1 till day 34): 1.64; EW-intake per day ([1]; from day 1 till day 34): 0.57; food conversion ([1]; from day 1 till day 34): 1.49; food intake ([1]; from day 1 till day 34): 0.52 kg/day; growth rate ([1]; from day 1 till day 34): 352 g/day; weight ([1]; from day 1 till day 34): 20.9 kg; EW-conversion ([1]; from day 15 till day 34): 1.70; EW-intake per day ([1]; from day 15 till day 34): 0.79; food conversion ([1]; from day 15 till day 34): 1.55; food intake ([1]; from day 15 till day 34): 0.72 kg/day; growth rate ([1]; from day 15 till day 34): 468 g/day; weight ([1]; from day 15 till day 34): 10.5 kg; EW-conversion [1, 3]: 1.43; food conversion [1, 3]: 1.28; growth rate [1, 3]: 185 g/day; EW-intake per day [1, 4]: 0.26; food intake [1, 4]: 0.23 kg/day; weight at weaning ([1]; piglets, at weaning (start of experiment)): 7.7 kg; Incidence of diarrhoea: no diarrhoea ([2]; First week post-weaning): 81.2%; Incidence of diarrhoea: past (paste-like) diarrhoea ([2]; First week post-weaning): 17.6%; Incidence of diarrhoea: watery diarrhoea ([2]; First week post-weaning): 1.2%; Incidence of diarrhoea: past (paste-like) diarrhoea ([2]; Second week post-weaning): 9.5%; Incidence of diarrhoea: watery diarrhoea ([2]; Second week post-weaning): 0.2%; Incidence of diarrhoea: no diarrhoea ([2]; Second week post-weaning, p < 0.1): 90.3%; Incidence of diarrhoea: past (paste-like) diarrhoea ([2]; Third week post-weaning): 9.0%; Incidence of diarrhoea: watery diarrhoea ([2]; Third week post-weaning): 0.5%; Incidence of diarrhoea: no diarrhoea ([2]; Third week post-weaning, p < 0.01): 90.5%; number of animals required treatment ([2]; veterinary treatment during the study): 23
